Source: patent US4810630A, “Use of polyoxyethylene ethers to improve the performance of immunoassays employing peroxidase conjugates” (priority 1987, dated 1989)

Test system: N. gonorrhea
Experiment: Microtiter plate enzyme immunoassay: optimization of coating antibody concentration with detergent in assay buffer
Parameters: species or system Neisseria gonorrhea
Experimental: Samples were treated 1.0N NaOH and neutralized with assay buffer as described in Example 1, above. For this assay, 0.100 mL aliquots of the treated, neutralized sample were transferred to the wells of a 96-well microtiter plate which had been previously incubated with an optimized concentration of anti-N. gonorrhea antibody diluted in phosphate buffered saline for 90-120 minutes, drained, then blocked with a solution containing 1.0% bovine serum albumin and 20% sucrose in phosphate buffered saline for 2 hours and dried in vacuo. The aliquots were permitted to incubate in the microtiter plate wells for 90 minutes at room temperature,then drained and washed with phosphate buffered saline containing 0.05% Tween® 20. Horseradish peroxidase conjugated anti-N. gonorrhea, 100 μL of an optimized concentration, was then added to each well and the plate again incubated for 1 hour at room temperature. The plate was then drained and washed as above. A 100 μL portion of the substrate/chromogen solution described in Example 1, above, was then added to each well and incubated for 10 minutes at room temperature. The absorbance of each well was then determined at 630 nm, and corrected for the absorbance at 490 nm.
Antibody specific for Neisseria gonorrhea was used to coat the wells of microtiter plates at varying concentrations in phosphate buffered saline, as described above. A comparison of the optimal antibody concentration in assays using Tween® 20 or Triton® X-100 was made by testing a single concentration of N. gonorrhea in wells previously coated, blocked, and dried as described above. The optimum concentration of antibody is identified as that which yields the maximum signal in the assay with a minimal background response. Table 4 lists the results of such experiments using Tween® 20 and Triton® X-100 as detergents in the assay buffer.

| Substance | % Maximum Signal (coating antibody 0.05 μg/well) | % Maximum Signal (coating antibody 0.1 μg/well) | % Maximum Signal (coating antibody 0.5 μg/well) | % Maximum Signal (coating antibody 0.8 μg/well) | % Maximum Signal (coating antibody 1.0 μg/well) | % Maximum Signal (coating antibody 1.5 μg/well) | % Maximum Signal (coating antibody 2.0 μg/well) | % Maximum Signal (coating antibody 0.20 μg/well) | % Maximum Signal (coating antibody 0.30 μg/well) | % Maximum Signal (coating antibody 0.35 μg/well) | % Maximum Signal (coating antibody 0.40 μg/well) | % Maximum Signal (coating antibody 0.45 μg/well) | % Maximum Signal (coating antibody 0.60 μg/well) |
| --- | --- | --- | --- | --- | --- | --- | --- | --- | --- | --- | --- | --- | --- |
| polyoxyethylene-sorbitan monolaurate [Tween ® 20] | 16% | 35% | 100% | 98% | 90% | 77% | 66% | – | – | – | – | – | – |
| polyoxyethylene-octylphenoxy [Triton ® X-100] | – | – | 58% | – | – | – | – | 100% | 98% | 70% | 69% | 66% | 57% |
